Article PMC3906007, “Discovery of a Small Molecule Agonist of Phosphatidylinositol 3-Kinase p110α That Reactivates Latent HIV-1” (PLoS ONE, 2014)

Legend:
[1] = Cytotoxicity (MTT or CellTiter 96), CD8+-depleted MNC; type: cell-based; conditions: human, CD8+-depleted mononuclear cells (MNC) from whole blood; 24 hour incubation; mean of 2 replicates
Method: Following a 24 hour incubation period, cell viability was measured using either the MTT (Roche Applied Science, Indianapolis, IN) or CellTiter 96 proliferation (Promega, WI) assay.
CD8+T-cells were depleted from whole blood using RosetteSep Human CD8 Depletion Cocktail (StemCell Technologies, Vancouver, BC) according to manufacturer's instructions. 2×10^6 CD4^+ MNC cells were seeded in triplicate per treatment in 48-well plates and allowed to rest overnight. All wells were maintained in 81 nM efavirenz. […] Activation controls were treated with CD3/CD28 Dynabeads (Life Technologies, Grand Island, NY). After 7 days of incubation, supernatants from triplicate wells were pooled, centrifuged (500 g×5 min), and stored at −80°C. HIV-1 RNA levels in supernatants were determined using the COBAS® AmpliPrep/COBAS® TaqMan® HIV-1 Test, v2.0 (Roche, Indianapolis, IN).

[2] = test system: latent HIV-1 in ACH2 and U1 cell lines; assay: Latent HIV-1 reactivation, range across cell lines of virus latency; type: cell-based; conditions: Human immunodeficiency virus 1, ACH-2, read-out: EC50, reactivation of latent HIV-1 gene expression
HDAC2 = biological target: T1, HDAC2 (Homo sapiens, UniProt Q92769); assay: biochemical; conditions: recombinant purified enzyme; read-out: 57704 IC50, HDAC2
T1 construct: purchased BPS Bioscience (San Diego, CA)
T1 sequence (Q92769 whole entry): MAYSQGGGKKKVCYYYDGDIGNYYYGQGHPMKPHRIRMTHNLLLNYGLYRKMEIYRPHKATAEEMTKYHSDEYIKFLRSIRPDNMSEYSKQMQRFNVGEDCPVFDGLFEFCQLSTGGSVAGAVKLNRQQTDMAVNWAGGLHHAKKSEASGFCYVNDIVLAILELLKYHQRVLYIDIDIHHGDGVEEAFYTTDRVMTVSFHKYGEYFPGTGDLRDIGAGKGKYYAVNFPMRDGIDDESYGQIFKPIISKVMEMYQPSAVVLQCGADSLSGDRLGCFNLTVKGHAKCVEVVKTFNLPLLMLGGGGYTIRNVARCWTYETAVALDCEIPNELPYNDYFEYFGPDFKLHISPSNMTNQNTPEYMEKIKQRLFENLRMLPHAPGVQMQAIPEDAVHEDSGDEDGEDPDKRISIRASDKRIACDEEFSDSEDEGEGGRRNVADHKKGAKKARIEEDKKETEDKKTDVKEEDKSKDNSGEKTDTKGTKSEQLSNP
Method: The lysine deacetylase activity of HDACs 1, 2, 3, and 8 was assessed using the Fluorogenic HDAC Assay (BPS Bioscience, San Diego, CA) according to the manufacturer's instructions. […] All assays were carried out under steady-state conditions and the assay read-out was optimized for linearity both as a function of time and enzyme concentration. The formation of the fluorescent product was measured using a SpectraMax M2 Plate Reader (Molecular Devices, CA). The excitation and emission wavelengths were 360 nm and 450 nm, respectively.

For `COc1cc2c(cc1OC)-c1c(OC)c(OC)cc3ccnc(c13)C2=O` [Compound 57704, 1,2,9,10-tetramethoxy-7H-dibenzo[de,g]quinolin-7-one], the CC50 at 24 h [1] was 80 µM, the EC50 [2] was 5 to 9 µM and the IC50 (HDAC2) was greater than 50 µM.
